Values quoted from earlier work, collected in US20120277693A1, “METHOD AND APPARATUS FOR IMPROVING THE APPEARANCE OF NAILS AFFECTED BY ONYCHOMYCOSIS THROUGH THE TOPICAL APPLICATION OF AN AQUEOUS SOLUTION CONTAINING BORIC ACID AND CAMPHOR OR OTHER TERPENES” (priority 2009, published 2012).

Key:
[1] = in boiling water; believed to be approximately; also printed as 280 g/L or 4.53 mole/L
fungal nail infection = conditions: topical lacquer painted daily on infected nails

Row | SMILES | boric acid concentration, supersaturated [1] | patients in whom the treatment is effective (fungal nail infection)
1 | OB(O)O [boric acid] | approximately 28% | 
2 | Cc1cc(C2CCCCC2)n(O)c(=O)c1 [ciclopirox] |  | less than 10%
